Experimental data: patent publication US20250049812A1, “Compounds that Inhibit Necroptosis and Their Preparation Methods” (SHANGHAI INSTITUTE OF ORGANIC CHEMISTRY, CHINESE ACADEMY OF …, priority 2021, published 2025)
Read-outs that look alike come from different tables or passages of the source.

Experiments:
[1] = system: Jurkat FADD (−/−) Cells; test: TNF-α induced necroptosis of Jurkat FADD-deficient cells (CellTiter-Glo cell survival); format: cell-based, human; details: Homo sapiens; TNF-α induced necroptosis, Jurkat FADD-deficient cells, 13 hours, CellTiter-Glo; read-out: IC50
Summary of the method: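 Cells in RPMI 1640 with 10% FBS were pretreated for 1 h at 37 °C with compound (12-point threefold series from 25 μM, or 0.5 μM, in triplicate). They were then stimulated with TNFα added as a 5 ng/mL solution for 13 h. Survival was read by luminescence.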

[2] = molecular target: T1, RIPK1 (Homo sapiens, UniProt Q13546); test: RIPK1 activity inhibition test (NANOSYN); format: biochemical; details: 12 concentrations, threefold dilution, 1% DMSO
T1 sequence (Q13546 1-671): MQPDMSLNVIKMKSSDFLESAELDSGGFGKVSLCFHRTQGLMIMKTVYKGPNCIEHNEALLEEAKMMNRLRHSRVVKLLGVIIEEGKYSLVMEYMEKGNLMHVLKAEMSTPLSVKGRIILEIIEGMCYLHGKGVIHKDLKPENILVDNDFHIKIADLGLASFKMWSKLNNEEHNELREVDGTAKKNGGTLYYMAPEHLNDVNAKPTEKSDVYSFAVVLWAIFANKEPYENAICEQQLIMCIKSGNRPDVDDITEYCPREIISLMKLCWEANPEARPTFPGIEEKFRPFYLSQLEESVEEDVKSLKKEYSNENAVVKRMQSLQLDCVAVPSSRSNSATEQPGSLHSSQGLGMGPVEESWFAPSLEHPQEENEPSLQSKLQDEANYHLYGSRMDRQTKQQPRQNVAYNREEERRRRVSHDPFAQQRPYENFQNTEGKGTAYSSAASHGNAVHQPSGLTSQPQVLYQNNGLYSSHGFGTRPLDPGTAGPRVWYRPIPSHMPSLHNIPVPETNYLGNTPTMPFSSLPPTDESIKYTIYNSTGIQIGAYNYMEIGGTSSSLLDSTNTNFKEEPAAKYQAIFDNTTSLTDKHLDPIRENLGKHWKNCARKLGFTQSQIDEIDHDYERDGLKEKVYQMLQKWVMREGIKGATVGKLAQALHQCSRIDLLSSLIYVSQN
Protocol: The test compounds were dissolved in DMSO, with the highest concentration being […]. Subsequently, the concentrations were serially diluted threefold, with the DMSO concentration in the test medium maintained at 1%. IC50 values were calculated from data generated prom 12 tested concentrations.

[3] = Study of oral pharmacokinetics in rats; details: rat, in vivo, male SD rats, p.o.; for bioavailability: i.v. 1 mg/kg; for AUC(0-t): read-out: AUC0-8
Protocol: Healthy male SD rats were used as experimental animals. The intragastric (p.o.) administration was performed, with a dosage of 5 mg/kg or 15 mg/kg. Preparation: the compound was dissolved in a formulation made of 1% tween 80, 1% HMPC, and 98% water. The mixture was ground and shaken until the compound was uniformly distributed with a small particle size, and then 1 equivalent of methanesulfonic acid was added. The intravenous administration was performed with a dosage of 1 mg/kg. Preparation: 5% DMSO, 10% EtOH, 10% sulotol, and 75% physiological saline was added to the compound, and mixed well. Samples were taken at 5 minutes, 15 minutes, 30 minutes, 1 hour, 2 hours, 4 hours, 6 hours, and 8 hours after administration, and then the samples were analyzed using liquid chromatography tandem mass spectrometry (LC-MS/MS).

Structure (SMILES) | IC50 [2] | Cmax ([3]; 5 mg/kg) | Tmax ([3]; 5 mg/kg) | half-life ([3]; 5 mg/kg) | bioavailability ([3]; 5 mg/kg) | AUC(0-t) ([3]; 5 mg/kg) | Cmax ([3]; 15 mg/kg) | Tmax ([3]; 15 mg/kg) | half-life ([3]; 15 mg/kg) | bioavailability ([3]; 15 mg/kg) | AUC(0-t) ([3]; 15 mg/kg) | IC50 [1]
CN1C(=O)C(NC(=O)c2nnc(Cc3ccccc3)[nH]2)Cn2cc(-c3ccnn3C)c3cccc1c32 (racemic) [T-16, (±)-5-benzyl-N-(1-methyl-7-(1-methyl-1H-pyrazol-5-yl)-2-oxy-1,2,3,4-tetrahydro-[1,4]diazepino [3,2,1-hi]indol-3-yl)-4H-1,2,4-triazole-3-carboxamide] | 47.8 nM | – | – | – | – | – | – | – | – | – | – | < 10 nM
CN1C(=O)C(NC(=O)c2nnc(Cc3ccccc3)[nH]2)Cc2cn(-c3cnn(C)c3)c3cccc1c23 (racemic) [T-34, (±)-5-benzyl-N-(1-methyl-6-(1-methyl-1H-pyrazol-4-yl)-2-oxo-2,3,4,6-tetrahydro-1H-azacyclo [4,3,2-cd]indol-3-yl)-4H-1,2,4-triazole-3-carboxamide] | 50.4 nM | – | – | – | – | – | – | – | – | – | – | < 10 nM
CN1C(=O)[C@@H](NC(=O)c2nnc(Cc3ccccc3)[nH]2)Cc2cn(-c3ncccc3OC(F)F)c3cccc1c23 [T-112, (S)-5-benzyl-N-(6-(3-(difluoromethoxy)pyridin-2-yl)-1-methyl-2-oxo-2,3,4,6-tetrahydro-1H-aza [4,3,2-cd]indol-3-yl)-4H-1,2,4-triazole-3-carboxamide] | 28.3 nM | 494 ng/mL | 0.75 h | 1.99 h | 18.3% | 1700 ng·h/mL | 3930 ng/mL | 1.5 h | 1.91 h | 57.1% | 15900 ng·h/mL | < 10 nM

Continued by falling IC50 [2], values first:

IC50 [2] | Cmax ([3]; 5 mg/kg) | Tmax ([3]; 5 mg/kg) | half-life ([3]; 5 mg/kg) | bioavailability ([3]; 5 mg/kg) | AUC(0-t) ([3]; 5 mg/kg) | Cmax ([3]; 15 mg/kg) | Tmax ([3]; 15 mg/kg) | half-life ([3]; 15 mg/kg) | bioavailability ([3]; 15 mg/kg) | AUC(0-t) ([3]; 15 mg/kg) | Structure (SMILES) | IC50 [1]
24.9 nM | – | – | – | – | – | – | – | – | – | – | CN1C(=O)[C@@H](NC(=O)c2nnc(Cc3ccccc3)[nH]2)Cn2cc(-c3cn(C)nc3C(F)(F)F)c3cccc1c32 [T-118, (S)-5-benzyl-N-(1-methyl-7-(1-methyl-3-(trifluoromethyl)-1H-pyrazol-4-yl)-2-oxo-1,2,3,4-tetrahydro-[1,4]diazepine [3,2,1-hi]indol-3-yl)-4H-1,2,4-triazole-3-carboxamide] | < 10 nM
15.2 nM | 1270 ng/mL | 1 h | 3.76 h | 28.2% | 4900 ng·h/mL | – | – | – | – | – | CN1C(=O)[C@@H](NC(=O)c2nnc(Cc3ccccc3)[nH]2)Cc2cn(-c3ncccc3C(F)(F)F)c3cccc1c23 [T-96, (S)-5-benzyl-N-(1-methyl-2-oxo-6-(3-(trifluoromethyl)pyridin-2-yl)-2,3,4,6-tetrahydro-1H-azacyclo [4,3,2-cd]indol-3-yl)-4H-1,2,4-triazole-3-carboxamide] | < 10 nM
